Laboratory results: article PMC2362735, “New semisynthetic vinca alkaloids: chemical, biochemical and cellular studies” (British Journal of Cancer, 1999)
Where two headings read alike, the source gives them in different places.

What was measured:
[1] = system: Mouse leukaemia P388 cells; experiment: In vivo anti-tumour effect on P388 mouse leukaemia, single i.p. dose; details: for Dose (mg kg-1) giving the maximal effect: P388, single doses i.p.; for Maximal effect T/C (%): P388, single doses i.p. 24 h after transplantation, median survival treated/control x 100, six animals per group
From the text: (§1) The numerous antimitotic drugs already developed and therapeu- tically used for a large number of pathologies belong to different classes based on their chemical structure and other distinctive features. Antimitotic drugs usually target the tubulin/microtubule network of the cytoskeleton that is formed by assembly of cyto- plasmic tubulin dimers. The stability of the different microtubular structures varies considerably; some of their functions depend on their lability. The lability is augmented by the extreme sensitivity to various drugs. Several synthetic and natural compounds interact specifically with tubulin and/or microtubule, fundamentally destroying its dynamic character and leading to cell death. […] Because of their extensive clinical use, it is important to synthesize additional agents having at least the same biological activity. […] Nevertheless, it is unclear yet how the anti-calmodulin activity of these drugs is related to their desired and undesired pharmacological effects. […] The synthesis of the KAR derivatives are presented. […] Taxol, GTP and trifluoperazine were purchased from Sigma. All organic reagents for synthesis of the new compounds were obtained from Aldrich and were of the highest grade. All other chemicals were reagent grade commercial preparations. […] Tubulin was stored in 1 M sucrose, 10 mM sodium phosphate buffer, 0.5 mM magnesium chloride and 0.1 mM GTP, pH 7.0, at -80C and dialysed against the appropriate buffer before use. […] PFK, aldolase and glycerol-3-phosphate dehydrogenase- triosephosphate isomerase purified from rabbit skeletal muscle were purchased in ammonium sulphate suspensions from Sigma or Boehringer. The enzyme suspensions were centrifuged at 10 000g for 5 min. The pellets were suspended in the appropriate buffer, then the enzymes were gel filtered or dialysed in the same buffer to remove ammonium sulphate. […] (Figure 1B; R1 , CH3; R2 , CH2 CH2 Cl). […] After 2 h incubation at room temperature, 200 ml dried toluene was added to the reaction mixture. […] The mixture was stirred for 30 min. After separation of the organic phase, it was washed with water (3 x 30 ml) and dried with potassium sulphate and evaporated on a water bath of 35-40C at 20-27 hPa. The resulting material was chromatographed on silica gel (500 g, bead size of 0.040- 0.063 mm) column (30 mm x 500 mm) using ethyl acetate/ethanol (9:1) mixture as eluent. […] The mixture was kept for 4 h at room temperature and then evaporated on a water bath at 40C under a vacuum of 80 hPa to a final volume of 5-6 ml. […] (Figure 1B, R1 , CHO; R2 , CH2 CH2 Cl). […] Synthesis of KAR-4 [3-allyl-2,4-dioxo-3,5-spiro-oxazolidino- 4-deacetoxy-vinblastine] (Figure 1B; R1 , CH3; R2 , CH2 CH=CH2 ). […] NMR measurements were carried out on a Varian Unity plus-500 instrument (500 MHz for 1H and 125 MHz for 13C) in DMSO. Chemical shifts were determined relative to dTMS = 0.00 p.p.m. 1H and 13C signal assignments were verified by a concerted use of two-dimensional 1H-1H and 1H-13C shift correlation methods (DQFCOSY, HSQC, HMBC) and NOESY experiments. The gradient-enhanced DQFCOSY, HSQC, HMBC and NOESY experiments were recorded by using the standard spectrometer software package. A mixing time of tmix = 0.5 s was used for the NOESY experiments.

[2] = system: Mouse Ehrlich ascites tumour cells; experiment: In vivo anti-tumour effect on Ehrlich ascites carcinoma, single i.p. dose 4 days after transplantation
From the text: as §1

[3] = system: Human neuroblastoma cell line (SH-SY5Y); experiment: Microculture tetrazolium assay (MTA), cytotoxicity
From the text: as §1

calmodulin = biological target: T1, calmodulin (Bos taurus, UniProt P62157); experiment: Anti-calmodulin activity assay: calmodulin-induced PFK inactivation; format: biochemical, bovine; details: drug 20 M; for Effect on calmodulin induced PFK inactivation: Activity (U mg-1): PFK 1.2 M protomers, calmodulin 3 M, 60 min, without calmodulin 66.6 U mg-1, with calmodulin 8.0 U mg-1; for Anti-calmodulin activity: Efficiency (%): calculated from the activity data (100% = PFK without calmodulin, 0% = PFK with calmodulin)
T1 construct: Calmodulin from bovine brain was purified to homogeneity using Phenyl-Sepharose (Pharmacia) chromatography; from tissue; host or cells: bovine brain
From the text: The numerous antimitotic drugs already developed and therapeu- tically used for a large number of pathologies belong to different classes based on their chemical structure and other distinctive features. Antimitotic drugs usually target the tubulin/microtubule network of the cytoskeleton that is formed by assembly of cyto- plasmic tubulin dimers. The stability of the different microtubular structures varies considerably; some of their functions depend on their lability. The lability is augmented by the extreme sensitivity to various drugs. Several synthetic and natural compounds interact specifically with tubulin and/or microtubule, fundamentally destroying its dynamic character and leading to cell death. […] Because of their extensive clinical use, it is important to synthesize additional agents having at least the same biological activity. […] Nevertheless, it is unclear yet how the anti-calmodulin activity of these drugs is related to their desired and undesired pharmacological effects. […] The synthesis of the KAR derivatives are presented. […] Taxol, GTP and trifluoperazine were purchased from Sigma. All organic reagents for synthesis of the new compounds were obtained from Aldrich and were of the highest grade. All other chemicals were reagent grade commercial preparations. […] Tubulin was stored in 1 M sucrose, 10 mM sodium phosphate buffer, 0.5 mM magnesium chloride and 0.1 mM GTP, pH 7.0, at -80C and dialysed against the appropriate buffer before use. […] PFK, aldolase and glycerol-3-phosphate dehydrogenase- triosephosphate isomerase purified from rabbit skeletal muscle were purchased in ammonium sulphate suspensions from Sigma or Boehringer. The enzyme suspensions were centrifuged at 10 000g for 5 min. The pellets were suspended in the appropriate buffer, then the enzymes were gel filtered or dialysed in the same buffer to remove ammonium sulphate. […] (Figure 1B; R1 , CH3; R2 , CH2 CH2 Cl). […] After 2 h incubation at room temperature, 200 ml dried toluene was added to the reaction mixture. […] The mixture was stirred for 30 min. After separation of the organic phase, it was washed with water (3 x 30 ml) and dried with potassium sulphate and evaporated on a water bath of 35-40C at 20-27 hPa. The resulting material was chromatographed on silica gel (500 g, bead size of 0.040- 0.063 mm) column (30 mm x 500 mm) using ethyl acetate/ethanol (9:1) mixture as eluent. […] The mixture was kept for 4 h at room temperature and then evaporated on a water bath at 40C under a vacuum of 80 hPa to a final volume of 5-6 ml. […] (Figure 1B, R1 , CHO; R2 , CH2 CH2 Cl). […] Synthesis of KAR-4 [3-allyl-2,4-dioxo-3,5-spiro-oxazolidino- 4-deacetoxy-vinblastine] (Figure 1B; R1 , CH3; R2 , CH2 CH=CH2 ). […] NMR measurements were carried out on a Varian Unity plus-500 instrument (500 MHz for 1H and 125 MHz for 13C) in DMSO. Chemical shifts were determined relative to dTMS = 0.00 p.p.m. 1H and 13C signal assignments were verified by a concerted use of two-dimensional 1H-1H and 1H-13C shift correlation methods (DQFCOSY, HSQC, HMBC) and NOESY experiments. The gradient-enhanced DQFCOSY, HSQC, HMBC and NOESY experiments were recorded by using the standard spectrometer software package. A mixing time of tmix = 0.5 s was used for the NOESY experiments. […] Mass spectrum was recorded on a Kratos MS 80 instrument using FAB.

tubulin = experiment: Taxol-induced tubulin polymerization, turbidity at 350 nm; format: biochemical, calf; details: taxol-induced assembly, MES buffer pH 6.8, 37C; average of three independent measurements; read-out: Anti-tubulin effect, turbidity at 350 nm, IC50
From the text: as §1

[4] = biological target: Phosphofructokinase [ATP: D-fructose 6-phosphate 1-phospho-transferase, EC 2.7.1.11] from rabbit skeletal muscle (rabbit) (UniProt P00511)
Chain of Phosphofructokinase [ATP: D-fructose 6-phosphate 1-phospho-transferase, EC 2.7.1.11] from rabbit skeletal muscle (rabbit) (P00511 whole entry): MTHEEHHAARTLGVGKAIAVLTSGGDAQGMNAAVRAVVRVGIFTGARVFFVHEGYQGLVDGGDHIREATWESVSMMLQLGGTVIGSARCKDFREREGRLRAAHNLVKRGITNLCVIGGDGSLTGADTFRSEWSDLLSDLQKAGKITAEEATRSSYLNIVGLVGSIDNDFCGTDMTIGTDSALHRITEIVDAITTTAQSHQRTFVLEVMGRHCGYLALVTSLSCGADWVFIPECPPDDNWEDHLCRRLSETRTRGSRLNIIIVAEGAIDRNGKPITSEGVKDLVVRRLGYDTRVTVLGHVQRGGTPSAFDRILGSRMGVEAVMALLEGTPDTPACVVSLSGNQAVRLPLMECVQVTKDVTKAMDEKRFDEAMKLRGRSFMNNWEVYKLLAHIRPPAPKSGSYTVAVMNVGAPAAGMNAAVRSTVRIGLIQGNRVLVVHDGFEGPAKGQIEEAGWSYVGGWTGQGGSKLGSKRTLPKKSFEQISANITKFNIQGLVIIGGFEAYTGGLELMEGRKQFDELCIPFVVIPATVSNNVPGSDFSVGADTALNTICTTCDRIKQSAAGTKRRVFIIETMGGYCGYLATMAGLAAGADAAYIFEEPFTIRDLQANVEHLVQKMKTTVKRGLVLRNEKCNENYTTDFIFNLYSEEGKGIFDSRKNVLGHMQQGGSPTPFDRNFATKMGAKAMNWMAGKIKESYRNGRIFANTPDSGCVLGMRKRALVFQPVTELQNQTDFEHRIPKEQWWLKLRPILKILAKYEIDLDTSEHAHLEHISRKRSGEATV

[5] = system: Mouse leukaemia P388 cells; set-up: method as in Orosz et al (1997a); details: P388, single doses i.p.; data published also in ref Orosz et al (1997a); cited from earlier work
[6] = Table 2A, 40 mg kg-1 single dose i.p.
[7] = Table 2A, 40 mg kg-1 single dose i.p., sacrifice 8 days after implantation, control 5.33 ml
[8] = read-out: Cytotoxicity MTA IC50, 4-day treatment, MTT
[9] = Table 2B, 2 mg kg-1 single dose i.p.
[10] = Table 2B, 5 mg kg-1 single dose i.p.
[11] = Table 2B, 10 mg kg-1 single dose i.p.

## C=CCN1C(=O)O[C@@]2(C[C@]3(CC)C=CCN4CC[C@@]5(c6cc([C@@]7(C(=O)OC)C[C@@H]8CN(CCc9c7[nH]c7ccccc97)C[C@](O)(CC)C8)c(OC)cc6N(C)[C@H]52)[C@@H]43)C1=O [KAR-4, 3-allyl-2,4-dioxo-3,5-spiro-oxazolidino-4-deacetoxy-vinblastine]
[1]
  Dose (mg kg-1) giving the maximal effect: 40 mg/kg
  Maximal effect T/C (%): 214%
[2]; [6]
  Cells ml-1 (per cent of control): 90 per cent of control
  Total cells (per cent of control): 57 per cent of control
[2]; [7]
  Volume of tumour per mouse: 3.33 mL
[3]; [8]
  IC50: 3.5e-07 M
calmodulin
  Effect on calmodulin induced PFK inactivation: Activity (U mg-1): 10.9 U mg-1
  anti-calmodulin activity in the PFK assay (in words): does not display anti-calmodulin activity
  Anti-calmodulin activity: Efficiency (%): 5%
tubulin
  IC50: 185 nM

## Calmodulin from bovine brain (from UniProt P62157 1-149) (natural protein)
[4]
  PFK activity after 60 min incubation with calmodulin and KAR-2 (calmodulin induced PFK inactivation): 11.1 U mg-1
  PFK activity after 60 min incubation with calmodulin and KAR-3 (calmodulin induced PFK inactivation): 34.4 U mg-1
  PFK activity after 60 min incubation with calmodulin and KAR-4 (calmodulin induced PFK inactivation): 10.9 U mg-1
  PFK activity after 60 min incubation with calmodulin and trifluoperazine (calmodulin induced PFK inactivation): 46.1 U mg-1
  efficiency of KAR-2 in suspending the calmodulin induced PFK inactivation: 5%
  efficiency of KAR-3 in suspending the calmodulin induced PFK inactivation: 45%
  efficiency of KAR-4 in suspending the calmodulin induced PFK inactivation: 5%
  efficiency of trifluoperazine in suspending the calmodulin induced PFK inactivation: 65%
  residual PFK activity after 60 min incubation with calmodulin, no drug (66.6 U mg-1 without calmodulin): 8 U mg-1

## CCC1(O)CC2CN(CCc3c([nH]c4ccccc34)C(C(=O)OC)(c3cc4c(cc3OC)N(C=O)C3C5(CC6(CC)C=CCN7CCC43C76)OC(=O)N(CCCl)C5=O)C2)C1 (centres unmarked) [KAR-3, 3-(-chloroethyl)-2,4-dioxo-3,5-spiro-oxazolidino-4-deacetoxy-vincristine]
[1]
  Dose (mg kg-1) giving the maximal effect: 20 mg/kg
  Maximal effect T/C (%): 187%
[2]; [6]
  Cells ml-1 (per cent of control): 57 per cent of control
  Total cells (per cent of control): 32 per cent of control
[2]; [7]
  Volume of tumour per mouse: 3.00 mL
[3]; [8]
  IC50: 3.1e-07 M
calmodulin
  Effect on calmodulin induced PFK inactivation: Activity (U mg-1): 34.4 U mg-1
  anti-calmodulin activity in the PFK assay (in words): significant anti-calmodulin potency
  reduction of the calmodulin-mediated inactivation of PFK: about 50%
  Anti-calmodulin activity: Efficiency (%): 45%
tubulin
  IC50: 136 nM

## CC[C@]1(O)C[C@H]2CN(CCc3c([nH]c4ccccc34)[C@@](C(=O)OC)(c3cc4c(cc3OC)N(C=O)[C@H]3[C@@](O)(C(=O)OC)[C@H](OC(C)=O)[C@]5(CC)C=CCN6CC[C@]43[C@@H]65)C2)C1 [Vincristine, vincristine, reference compound]
[5]
  Dose (mg kg-1) giving the maximal effect: 1 mg/kg
[2]; 15 mg kg-1 (highest dose) single dose i.p., three mice per group
  mortality of treated animals: death of two of the three treated animals
[2]; Table 2B, 1 mg kg-1 single dose i.p.
  Total cells (per cent of control): 57 per cent of control
[2]; Table 2B, 1 mg kg-1 single dose i.p., control 2.67 ml
  Volume of tumour per mouse: 2.00 mL
[2]; [9]
  Cells ml-1 (per cent of control): 106 per cent of control
  Total cells (per cent of control): 60 per cent of control
[2]; Table 2B, 2 mg kg-1 single dose i.p., control 2.67 ml
  Volume of tumour per mouse: 1.50 mL
[2]; [10]
  Cells ml-1 (per cent of control): 225 per cent of control
  Total cells (per cent of control): 54 per cent of control
[2]; Table 2B, 5 mg kg-1 single dose i.p., control 2.67 ml
  Volume of tumour per mouse: 0.64 mL
[2]; [11]
  Cells ml-1 (per cent of control): 224 per cent of control
  Total cells (per cent of control): 45 per cent of control
[2]; Table 2B, 10 mg kg-1 single dose i.p., control 2.67 ml
  Volume of tumour per mouse: 0.53 mL
[2]; single dose i.p., Ehrlich ascites mice
  maximum dose that did not result in the death of the animals: 10 mg/kg
[3]; Homo sapiens, 96 h, read-out: Cytotoxicity MTA IC50
  IC50: 1.3e-08 M
[3]; Homo sapiens, 96 h, read-out: Cytotoxicity MTA IC50 (M)
  IC50: 1.3e-08 M
tubulin
  IC50: 290 nM
